Measurements published in patent publication US9809582B2, “Aminoester derivatives” (CHIESI FARMACEUTICI S.p.A., priority 2015, dated 2017).
Like-named read-outs stand apart in the source and are kept apart here.

Columns and labels:
[1] = target: Human recombinant PDE4B2 (Homo sapiens (Human), UniProt Q07343); test: PDE4B2 HTRF assay; format: biochemical
Procedure: PDE4B2 activity is detected using the LANCE Ultra cAMP homogeneous time resolved fluorescence resonance energy transfer (TR-FRET) assay from Perkin Elmer. The assay is based on the competition between the europium (Eu) chelate-labeled cAMP tracer and sample cAMP for binding sites on cAMP-specific monoclonal antibodies (mAb) labelled with the ULight™ dye. The assay is carried out in 384-well low volume plates in a volume of 10 μl. Human recombinant PDE4B2 (80 pM) is incubated for 2 h with 3 nM cAMP in buffer containing 1×HBSS, 5 mM HEPES, 3 mM MgCl2, 0.1% BSA, pH 7.4 with or without test compounds. The enzymatic reactions are efficiently stopped by the addition of 500 μM IBMX present in the combined Stop/Detection buffer containing europium (Eu) chelate-labeled cAMP tracer and cAMP-specific monoclonal antibodies (mAb) labelled with the ULight™ dye. […] IC50 values are determined from competition curves using a non-linear curve fitting program.

[2] = target: Human M3 receptor (Homo sapiens (Human), UniProt P20309); test: M3 receptor radioligand binding assay
Procedure: M3 Receptor Radioligand Binding Assay:
The assay is carried out in 96-well polypropylene plates in a volume of 250 μl. […] The final assay concentration of DMSO is 0.5% (v/v). The plates are sealed and incubated for 2 h at room temperature on an orbital shaker (slow speed). Membranes are harvested onto 96-well unifilter GF/C filter plates pre-treated with 0.5% polyethyleneimine (v/v), using a filter manifold, washed four times with […] of assay buffer. The plates are dried before addition of 50 μl of microscint-0, sealed then read in a Trilux Microbeta scintillation counter. IC50 values are determined from competition curves using a non-linear curve fitting program. Ki values are calculated from IC50 values by the Cheng and Prusoff equation.

[3] = PDE4B2 HTRF assay, read-out: PDE4B2 IC50 Activity
[4] = M3 Receptor radioligand binding assay, read-out: M3 IC50 Activity

Sequence of Human M3 receptor (P20309 whole entry): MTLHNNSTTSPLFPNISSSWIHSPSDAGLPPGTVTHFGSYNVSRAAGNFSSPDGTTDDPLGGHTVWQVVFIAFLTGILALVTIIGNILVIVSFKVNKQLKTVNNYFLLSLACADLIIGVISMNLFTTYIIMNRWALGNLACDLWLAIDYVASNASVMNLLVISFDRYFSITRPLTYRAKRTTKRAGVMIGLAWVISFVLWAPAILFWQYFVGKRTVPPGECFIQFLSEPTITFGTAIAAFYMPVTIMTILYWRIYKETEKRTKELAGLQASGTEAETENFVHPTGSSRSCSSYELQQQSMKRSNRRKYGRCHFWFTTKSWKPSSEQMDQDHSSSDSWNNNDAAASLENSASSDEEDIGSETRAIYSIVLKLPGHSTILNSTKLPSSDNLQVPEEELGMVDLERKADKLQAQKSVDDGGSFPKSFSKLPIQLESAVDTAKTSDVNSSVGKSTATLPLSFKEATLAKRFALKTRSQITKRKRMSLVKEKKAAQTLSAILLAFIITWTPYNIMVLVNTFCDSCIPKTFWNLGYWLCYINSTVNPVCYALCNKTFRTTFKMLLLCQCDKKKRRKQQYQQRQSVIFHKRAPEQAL
Sequence of Human recombinant PDE4B2 (Q07343 other isoform, or with tags, fused parts or gaps): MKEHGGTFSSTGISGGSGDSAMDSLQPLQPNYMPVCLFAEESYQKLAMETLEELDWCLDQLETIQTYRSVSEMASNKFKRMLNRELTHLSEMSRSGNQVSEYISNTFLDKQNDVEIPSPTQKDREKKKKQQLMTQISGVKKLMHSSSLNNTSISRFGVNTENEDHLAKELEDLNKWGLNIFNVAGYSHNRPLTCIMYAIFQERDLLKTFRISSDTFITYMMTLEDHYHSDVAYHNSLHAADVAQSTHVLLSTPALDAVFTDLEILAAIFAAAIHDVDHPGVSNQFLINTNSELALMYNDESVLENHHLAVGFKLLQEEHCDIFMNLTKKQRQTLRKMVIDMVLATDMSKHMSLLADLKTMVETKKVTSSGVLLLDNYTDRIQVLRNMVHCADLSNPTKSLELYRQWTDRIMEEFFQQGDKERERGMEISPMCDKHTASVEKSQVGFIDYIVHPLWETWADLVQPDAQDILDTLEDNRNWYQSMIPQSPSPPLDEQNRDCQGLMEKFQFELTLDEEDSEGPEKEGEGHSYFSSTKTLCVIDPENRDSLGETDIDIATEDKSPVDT

Compound | IC50 [2, 4] | IC50 ([1]; read-out: PDE4B2 IC50 Activity) | further results
COc1ccc([C@H](Cc2c(Cl)c[n+]([O-])cc2Cl)OC(=O)c2ccc(CNC3CC(C(=O)OC4CCN(C)CC4)(c4ccccc4)C3)s2)cc1OC (stereo partly drawn) [Example 32, [(1S)-2-(3,5-dichloro-1-oxido-pyridin-1-ium-4-yl)-1-(3,4-dimethoxyphenyl)ethyl] 5-[[[3-[(1-methyl-4-piperidyl)oxycarbonyl]-3-phenyl-cyclobutyl]amino]methyl]-thiophene-2-carboxylate] | 10 to 100 nM |  | IC50 [1, 3]: < 1 nM
COc1ccc([C@H](Cc2c(Cl)c[n+]([O-])cc2Cl)OC(=O)c2ccc(CN(C)CC(C)(C(=O)O[C@H]3CN4CCC3CC4)c3ccccc3)s2)cc1OC (stereo partly drawn) [Example 26, [(1S)-2-(3,5-dichloro-1-oxido-pyridin-1-ium-4-yl)-1-(3,4-dimethoxyphenyl)ethyl] 5-[[methyl-[2-methyl-3-oxo-2-phenyl-3-[(3R)-quinuclidin-3-yl]oxy-propyl]amino]methyl]thiophene-2-carboxylate] |  | 1 to 10 nM | IC50 ([2]; read-out: M3 IC50 Activity): 1 to 10 nM
COc1ccc([C@H](Cc2c(Cl)c[n+]([O-])cc2Cl)OC(=O)c2ccc(CNCC(C)(C(=O)O[C@H]3CN4CCC3CC4)c3ccccc3)s2)cc1OC (stereo partly drawn) [Example 31, [(1S)-2-(3,5-dichloro-1-oxido-pyridin-1-ium-4-yl)-1-(3,4-dimethoxyphenyl)ethyl] 5-[[[2-methyl-3-oxo-2-phenyl-3-[(3R)-quinuclidin-3-yl]oxy-propyl]amino]methyl]thiophene-2-carboxylate] |  |  | IC50 [1]: 1 to 10 nM; IC50 ([2]; M3 IC50 Activity): 10 to 100 nM
COc1ccc([C@H](Cc2c(Cl)c[n+]([O-])cc2Cl)OC(=O)c2ccc(CN3CC(C(=O)O[C@@H]4CCN(C)C4)(c4ccccc4)C3)s2)cc1OC [Example 16, [(3R)-1-methylpyrrolidin-3-yl] 1-[[5-[(1S)-2-(3,5-dichloro-1-oxido-pyridin-1-ium-4-yl)-1-(3,4-dimethoxyphenyl)ethoxy]carbonyl-2-thienyl]methyl]-3-phenyl-azetidine-3-carboxylate] | 1 to 10 nM |  | IC50 [1, 3]: 1 to 10 nM
COc1ccc([C@H](Cc2c(Cl)c[n+]([O-])cc2Cl)OC(=O)c2ccc(CNCC(C)(C(=O)OC3CCN(C)CC3)c3ccccc3)s2)cc1OC (stereo partly drawn) [Example 8, [(1S)-2-(3,5-dichloro-1-oxido-pyridin-1-ium-4-yl)-1-(3,4-dimethoxyphenyl)ethyl] 5-[[[2-methyl-3-[(1-methyl-4-piperidyl)oxy]-3-oxo-2-phenyl-propyl]amino]methyl]thiophene-2-carboxylate] | 10 to 100 nM |  | 
COc1ccc([C@H](Cc2c(Cl)c[n+]([O-])cc2Cl)OC(=O)c2ccc(CNCC(C)(C(=O)OCCN(C)C)c3ccccc3)s2)cc1OC (stereo partly drawn) [Example 9, [(1S)-2-(3,5-dichloro-1-oxido-pyridin-1-ium-4-yl)-1-(3,4-dimethoxyphenyl)ethyl] 5-[[[3-(2-dimethylaminoethyloxy)-2-methyl-3-oxo-2-phenyl-propyl]amino]methyl]thiophene-2-carboxylate] | 10 to 100 nM |  | 
COc1ccc([C@H](Cc2c(Cl)c[n+]([O-])cc2Cl)OC(=O)c2ccc(CNCC(C(=O)O[C@H]3CN4CCC3CC4)c3ccccc3)s2)cc1OC (single isomer, unassigned) [Example 21] |  | 1 to 10 nM | IC50 ([2]; M3 IC50 Activity): 1 to 10 nM
COc1ccc([C@H](Cc2c(Cl)c[n+]([O-])cc2Cl)OC(=O)c2ccc(CNCC(C)(C(=O)OCCN(C)C)c3ccccc3)s2)cc1OC (single isomer, unassigned) [Example 28] | 10 to 100 nM |  | 
COc1ccc([C@H](Cc2c(Cl)c[n+]([O-])cc2Cl)OC(=O)c2ccc(CNCC(C)(C(=O)OC3CCN(C)CC3)c3ccccc3)s2)cc1OC (stereo partly drawn) [Example 24, [(1S)-2-(3,5-dichloro-1-oxido-pyridin-1-ium-4-yl)-1-(3,4-dimethoxyphenyl)ethyl] 5-[[[2-methyl-3-[(1-methyl-4-piperidyl)oxy]-3-oxo-2-phenyl-propyl]amino]methyl]thiophene-2-carboxylate] | 10 to 100 nM |  | 
COc1ccc([C@H](Cc2c(Cl)c[n+]([O-])cc2Cl)OC(=O)c2ccc(CNC3CC(C(=O)O[C@H]4CN5CCC4CC5)(c4ccccc4)C3)s2)cc1OC (stereo partly drawn) [Example 37, [(1S)-2-(3,5-dichloro-1-oxido-pyridin-1-ium-4-yl)-1-(3,4-dimethoxyphenyl)ethyl] 5-[[[3-phenyl-3-[(3R)-quinuclidin-3-yl]oxycarbonyl-cyclobutyl]amino]methyl]thiophene-2-carboxylate] |  | 1 to 10 nM | IC50 ([2]; read-out: M3 IC50 Activity): 1 to 10 nM
COc1ccc([C@H](Cc2c(Cl)c[n+]([O-])cc2Cl)OC(=O)c2ccc(CNCC(C(=O)O[C@H]3CN4CCC3CC4)c3ccccc3)s2)cc1OC (stereo partly drawn) [Example 1, [(1S)-2-(3,5-dichloro-1-oxido-pyridin-1-ium-4-yl)-1-(3,4-dimethoxyphenyl)ethyl] 5-[[[3-oxo-2-phenyl-3-[(3R)-quinuclidin-3-yl]oxy-propyl]amino]methyl]thiophene-2-carboxylate] |  |  | IC50 [1]: 1 to 10 nM; IC50 ([2]; M3 IC50 Activity): 1 to 10 nM
COc1ccc([C@H](Cc2c(Cl)c[n+]([O-])cc2Cl)OC(=O)c2ccc(CNCC(C)(C(=O)OC3CCN(C)CC3)c3ccccc3)s2)cc1OC (stereo partly drawn) [Example 25, [(1S)-2-(3,5-dichloro-1-oxido-pyridin-1-ium-4-yl)-1-(3,4-dimethoxyphenyl)ethyl] 5-[[[2-methyl-3-[(1-methyl-4-piperidyl)oxy]-3-oxo-2-phenyl-propyl]amino]methyl]thiophene-2-carboxylate] | 10 to 100 nM |  | IC50 [1, 3]: 1 to 10 nM
COc1ccc([C@H](Cc2c(Cl)c[n+]([O-])cc2Cl)OC(=O)c2ccc(CNCC(C(=O)O[C@H]3CN4CCC3CC4)c3ccccc3)cc2)cc1OC (stereo partly drawn) [Example 2, [(1S)-2-(3,5-dichloro-1-oxido-pyridin-1-ium-4-yl)-1-(3,4-dimethoxyphenyl)ethyl] 4-[[[3-oxo-2-phenyl-3-[(3R)-quinuclidin-3-yl]oxy-propyl]amino]methyl]benzoate] |  |  | IC50 [1]: 1 to 10 nM; IC50 ([2]; M3 IC50 Activity): 1 to 10 nM
COc1ccc([C@H](Cc2c(Cl)c[n+]([O-])cc2Cl)OC(=O)c2ccc(CNC3CC(C(=O)OC4CCN(C)CC4)(c4ccccc4)C3)s2)cc1OC (single isomer, unassigned) [Example 35] | 1 to 10 nM |  | IC50 [1, 3]: 1 to 10 nM
COc1ccc([C@H](Cc2c(Cl)c[n+]([O-])cc2Cl)OC(=O)c2ccc(CNCC(C(=O)OC3CCN(C)CC3)c3ccccc3)s2)cc1OC (stereo partly drawn) [Example 5, [(1S)-2-(3,5-dichloro-1-oxido-pyridin-1-ium-4-yl)-1-(3,4-dimethoxyphenyl)ethyl] 5-[[[3-[(1-methyl-4-piperidyl)oxy]-3-oxo-2-phenyl-propyl]amino]methyl]thiophene-2-carboxylate] | 1 to 10 nM |  | 
COc1ccc([C@H](Cc2c(Cl)c[n+]([O-])cc2Cl)OC(=O)c2ccc(CN3CC(C(=O)O[C@H]4CN5CCC4CC5)(c4ccccc4)C3)s2)cc1OC [Example 15, [(3R)-quinuclidin-3-yl]-1-[[5-[(1S)-2-(3,5-dichloro-1-oxido-pyridin-1-ium-4-yl)-1-(3,4-dimethoxyphenyl)ethoxy]carbonyl-2-thienyl]methyl]-3-phenyl-azetidine-3-carboxylate] |  |  | IC50 [1]: 1 to 10 nM
COc1ccc([C@H](Cc2c(Cl)c[n+]([O-])cc2Cl)OC(=O)c2ccc(CNC3CC(C(=O)O[C@H]4CN5CCC4CC5)(c4ccccc4)C3)s2)cc1OC (stereo partly drawn) [Example 36, [(1S)-2-(3,5-dichloro-1-oxido-pyridin-1-ium-4-yl)-1-(3,4-dimethoxyphenyl)ethyl] 5-[[[3-phenyl-3-[(3R)-quinuclidin-3-yl]oxycarbonyl-cyclobutyl]amino]methyl]thiophene-2-carboxylate] |  | 1 to 10 nM | 
COc1ccc([C@H](Cc2c(Cl)c[n+]([O-])cc2Cl)OC(=O)c2ccc(CNCC(C)(C(=O)O[C@H]3CN4CCC3CC4)c3ccccc3)s2)cc1OC (stereo partly drawn) [Example 7, [(1S)-2-(3,5-dichloro-1-oxido-pyridin-1-ium-4-yl)-1-(3,4-dimethoxyphenyl)ethyl] 5-[[[2-methyl-3-oxo-2-phenyl-3-[(3R)-quinuclidin-3-yl]oxy-propyl]amino]methyl]thiophene-2-carboxylate] |  | 1 to 10 nM | 
COc1ccc([C@H](Cc2c(Cl)c[n+]([O-])cc2Cl)OC(=O)c2ccc(CNCC(C)(C(=O)O[C@H]3CN4CCC3CC4)c3ccccc3)s2)cc1OC (stereo partly drawn) [Example 30, [(1S)-2-(3,5-dichloro-1-oxido-pyridin-1-ium-4-yl)-1-(3,4-dimethoxyphenyl)ethyl] 5-[[[2-methyl-3-oxo-2-phenyl-3-[(3R)-quinuclidin-3-yl]oxy-propyl]amino]methyl]thiophene-2-carboxylate] |  |  | IC50 ([2]; M3 IC50 Activity): 1 to 10 nM
COc1ccc([C@H](Cc2c(Cl)c[n+]([O-])cc2Cl)OC(=O)c2ccc(CN(C)CC(C)(C(=O)O[C@H]3CN4CCC3CC4)c3ccccc3)s2)cc1OC (stereo partly drawn) [Example 27, [(1S)-2-(3,5-dichloro-1-oxido-pyridin-1-ium-4-yl)-1-(3,4-dimethoxyphenyl)ethyl] 5-[[methyl-[2-methyl-3-oxo-2-phenyl-3-[(3R)-quinuclidin-3-yl]oxy-propyl]amino]methyl]thiophene-2-carboxylate] |  | 1 to 10 nM | 
